# Source: article PMC4633953, “FR171456 is a specific inhibitor of mammalian NSDHL and yeast Erg26p” (Nature Communications, 2015)
# pIC50: −log10 of the molar value. Values joined by “and” are separate entries in the source; they are usually repeats but may differ in a detail not shown here. Identical values can stand only once.
# Assays:
# HepG2 = test: Mammalian cell proliferation, HepG2; format: cell-based
# K562 = test: Mammalian cell proliferation, K562; format: cell-based
# Rhizopus oryzae NF4801 = test: Antifungal MIC; format: cell-based; settings: Rhizopus arrhizus
# [1] = tested on: Candida parapsilosis NF2903; test: Antifungal MIC; format: cell-based; settings: Lodderomyces parapsilosis
# Candida glabrata NF2905 = test: Antifungal MIC; format: cell-based; settings: Nakaseomyces glabratus
# [2] = tested on: Scedosporium apiospermum NF4908; test: Antifungal MIC; format: cell-based
# [3] = tested on: S. cerevisiae (BY4743 strain); test: Yeast growth inhibition dose response (OD600); format: cell-based; settings: BY4743, 14 h, 30 °C, YPD, 2% DMSO
# Description: Figure 2 FR171456 targets Erg26p in S. cerevisiae. (a) Structures of FR171456, and two related triterpenes (compound 1, compound 2). (b) Duplicate 12-point Dose response curves of wild-type diploid yeast with three compounds in a. Strain BY4743 was grown for 14 h at 30 °C in YPD media with 2% DMSO containing a dilution series of FR171456: black; Compound-1: light grey circles, and Compound-2: light grey squares. Y axis: OD600 absorbance indicating yeast growth, x axis: compound concentrations (log10 μM). (c) Haploinsufficiency and homozygous profiling (HIP resp. HOP) for FR171456 at 4 μM. Each mutant strain in the pool is represented by a circle (non-essential genes) or a square (essential genes). The, y axis represents strain sensitivity and x axis represents z-score (specificity). In (d), the z-scores of the HIP pool strains (y axis) plotted against increasing doses of FR171456 (x axis; μM). (e) Relative compound sensitivity profile of the erg26Δ/ERG26 strain across HIP experiments performed with 1,800 diverse small molecule yeast proliferation inhibitors. TEXT PRINTED IN THE PICTURE: (a) FR171456: MW 516.68; S.c. […] IC50 >200 μM | (a) Compound 2: MW 532.68; S.c. IC50 >200 μM
# [4] = tested on: ERG26 heterozygous strain (erg26Δ/ERG26); test: Haploinsufficiency profiling (HIP); format: cell-based, S. cerevisiae; settings: FR171456 at IC30 (4 μM)
# Description: The HIP assay was performed in 24-well plates (Greiner 662102), with 1.6 ml per well YPD. Experimental compounds were tested at n=2 within the same plate at or close to their IC30 concentration. Each plate contained two no drug controls, one positive control (Benomyl), 10 experimental compounds in duplicates and one contamination control that received no cells. A standard experiment was 4 plates per 40 experimental compounds processed robotically without human intervention. YPD per compound filled wells were inoculated with ∼250 yeast cells per strain (100 μl of a 1.5-OD600 per ml culture) from an overnight log phase preculture to start the experiment (Supplementary Fig. 2). The plates were pipetted with a standard 96 pipettor head by providing tip boxes preconfigured with a special tip pattern. Plates were incubated for 16 h in a robotic shaking incubator at 30 °C/550 r.p.m. allowing for ∼5 doublings. ∼250 yeast cells per strain (120 μl of a 1.2-OD600 per ml culture) were subsequently transferred into a preconfigured 24-well plate that was stored in a robotic plate reservoir at 4 °C until 30 min prior to its use where it was prewarmed to 30 °C. Once inoculated the new plate was incubated at 30 °C/550 r.p.m. to allow the next five yeast generations (generation 6–10) and the plate containing the first five doubling cultures was stored at 4 °C. […]
# hepatic sterol synthesis = tested on: hepatic sterol synthesis; design: method as in PMID 15217190; settings: rats, short term experiments, up to 10 mg kg^−1 ref 14; cited from earlier work
smiles,measurement,setting,value
"C=C(CCC(C)C1CCC2C1(C)CC(O)C13CC14C(=O)CC(O)C(C)(C(=O)O)C4C(=O)CC23O)C(C)C [FR171456, (1R,2aR,3R,5aR,5bS,7aR,8S,9S,11aS,12aR)-1,5b,9-trihydroxy-2a,8-dimethyl-3-((R)-6-methyl-5-methyleneheptan-2-yl)-7,11-dioxohexadecahydrocyclopenta[a]cyclopropa[e]-phenanthrene-8-carboxylic acid]",concentration affecting proliferation,HepG2,80 µM
same,concentration affecting proliferation,K562,36 µM
same,MIC,Rhizopus oryzae NF4801,8 µg/mL and 18 µM
same,MIC,[1],32 µg/mL and 72 µM
same,MIC,Candida glabrata NF2905,16 µg/mL and 36 µM
same,MIC,[2],64 µg/mL and 144 µM
same,pIC50,[3],4.87
same,pIC50,"[3]; Saccharomyces cerevisiae, 14 h",4.85
same,strain sensitivity in HIP profile,[4],most significant hypersensitivity
same,dose giving significant reduction in hepatic sterol synthesis,hepatic sterol synthesis,0.1 mg/kg
